Source: patent US8754075B2, “1,3-oxazines as BACE1 and/or BACE2 inhibitors” (Hoffmann-La Roche Inc., priority 2011, dated 2014)
pIC50: −log10 of the molar value.

Legend:
BACE1 = BACE1 (Homo sapiens (Human), UniProt P56817); test: Cellular Aβ-lowering assay; assay type: cell-based; conditions: HEK293 cells stably expressing human APP wt (APP695); Aβ40 in supernatant by ELISA after 18-20 hrs
Description: Cellular Aβ-Lowering Assay: Human HEK293 cells which are stably transfected with a vector expressing a cDNA of the human APP wt gene (APP695) were used to assess the potency of the compounds in a cellular assay. The cells were seeded in 96-well microtiter plates in cell culture medium (Iscove, plus 10% (v/v) fetal bovine serum, glutamine, penicillin/streptomycin) to about 80% confluence and the compounds were added at a 10× concentration in 1/10 volume of medium without FCS containing 8% DMSO (final concentration of DMSO was kept at 0.8% v/v). After 18-20 hrs incubation at 37° C. and 5% CO2 in a humidified incubator the culture supernatant was harvested for the determination of Aβ40 concentrations. […] After blocking of non-specific binding sites with e.g. 1% BSA and washing, the culture supernatants were added in suitable dilutions together with a horseradish peroxidase-coupled Aβ detection antibody (e.g., antibody 4G8, Senetek, Maryland Heights, Mo.) and incubated for 5 to 7 hrs. Subsequently the wells of the microtiter plate were washed extensively with Tris-buffered saline containing 0.05% Tween 20 and the assay was developed with tetramethylbenzidine/H2O2 in citric acid buffer. After stopping the reaction with one volume […] the reaction was measured in an ELISA reader at 450 nm wavelength. The concentrations of Aβ in the culture supernatants were calculated from a standard curve obtained with known amounts of pure Aβ peptide.

BACE2 = BACE2 (Rattus norvegicus (Rat), UniProt Q6IE75); test: Assay for BACE inhibition by measuring cellular TMEM27 cleavage; assay type: cell-based; conditions: INS-TMEM27 (INS1e rat cell line, inducible hTMEM27); shed TMEM27 by ELISA
Chain of BACE2 (Q6IE75 63-514): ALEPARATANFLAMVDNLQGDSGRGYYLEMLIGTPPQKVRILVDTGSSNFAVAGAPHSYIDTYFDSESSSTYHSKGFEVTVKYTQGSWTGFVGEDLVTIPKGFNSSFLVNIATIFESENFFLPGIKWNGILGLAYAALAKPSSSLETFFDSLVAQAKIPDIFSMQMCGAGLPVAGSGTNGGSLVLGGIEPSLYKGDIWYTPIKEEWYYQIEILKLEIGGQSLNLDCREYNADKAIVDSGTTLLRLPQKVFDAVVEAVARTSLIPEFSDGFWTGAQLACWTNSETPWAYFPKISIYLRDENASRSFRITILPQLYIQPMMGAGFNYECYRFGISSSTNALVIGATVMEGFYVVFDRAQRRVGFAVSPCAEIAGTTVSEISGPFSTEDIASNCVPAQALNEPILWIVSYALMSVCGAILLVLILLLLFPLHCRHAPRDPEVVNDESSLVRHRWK
Excerpt: Assay for BACE Inhibition by Measuring Cellular TMEM27 Cleavage:
The assay uses the principle of inhibition of human TMEM27 cleavage by endogenous cellular BACE2 in the Ins1e rat cell line and shedding from the cell surface into the culture medium, followed by detection in an ELISA assay Inhibition of BACE2 prevents the cleavage and shedding in a dose-dependent manner.
The stable cell line “INS-TMEM27” represents an INS1e-derived cell line with inducible expression (using the TetOn system) of full-length hTMEM27 in a doxycycline-dependent manner. The cells are cultured throughout the experiment in RPMI1640+Glutamax (Invitrogen) Penicillin/Streptomycin, 10% Fetal bovine serum, […], […], 100 micrograms/ml G418 and 100 microgram/ml hygromycin and are grown inadherent culture at 37° C. in a standard CO2 cell culture incubator.
INS-TMEM27 cells are seeded in 96-well plates. After 2 days in culture, BACE2 inhibitor is added in a range of concentrations as required by the assay and after a further two hours, doxycycline is added to a final concentration of 500 ng/ml. The cells are incubated for a further 46 hours and the supernatant harvested for detection of shed TMEM27.
An ELISA assay (using a pair of mouse anti-human-TMEM27 antibodies, raised against the extracellular domain of TMEM27) is used for detection of TMEM27 in the culture medium. An EC50 for BACE2 inhibition is calculated using the ELISA readout for each inhibitor concentration with standard curve-fitting software such as XLFit for the Excel spreadsheet program.

Chain of BACE1 (P56817 46-501): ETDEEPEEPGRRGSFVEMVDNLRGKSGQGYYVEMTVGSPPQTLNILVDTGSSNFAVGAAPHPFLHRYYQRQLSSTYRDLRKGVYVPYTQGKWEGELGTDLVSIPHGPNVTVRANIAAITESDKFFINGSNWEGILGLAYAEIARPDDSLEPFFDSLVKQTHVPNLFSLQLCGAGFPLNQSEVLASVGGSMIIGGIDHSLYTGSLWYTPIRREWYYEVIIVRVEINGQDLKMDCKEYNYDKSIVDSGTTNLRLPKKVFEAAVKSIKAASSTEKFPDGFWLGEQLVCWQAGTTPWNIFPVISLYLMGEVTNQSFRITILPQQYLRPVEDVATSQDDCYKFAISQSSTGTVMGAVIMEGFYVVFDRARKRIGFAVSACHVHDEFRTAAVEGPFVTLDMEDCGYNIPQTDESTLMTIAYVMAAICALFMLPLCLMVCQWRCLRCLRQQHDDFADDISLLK

SMILES | pIC50 (BACE1) | pIC50 (BACE2)
C[C@]1(c2cc(NC(=O)c3ccc(Cl)cn3)ccc2F)N=C(N)OC[C@@H]1F [Example 1, 5-Chloro-pyridine-2-carboxylic acid [3-((4R,5R)-2-amino-5-fluoro-4-methyl-5,6-dihydro-4H-[1,3]oxazin-4-yl)-4-fluoro-phenyl]-amide] | 9.40 | 9.00
C[C@]1(c2cc(NC(=O)c3ncc(Cl)cc3Cl)ccc2F)N=C(N)OC[C@@H]1F [Example 2, 3,5-Dichloro-pyridine-2-carboxylic acid [3-((4R,5R)-2-amino-5-fluoro-4-methyl-5,6-dihydro-4H-[1,3]oxazin-4-yl)-4-fluoro-phenyl]-amide] | 9.22 | 8.10
C[C@]1(c2cc(NC(=O)c3ncc(F)cc3F)ccc2F)N=C(N)OC[C@@H]1F [Example 3, 3,5-Difluoro-pyridine-2-carboxylic acid [3-((4R,5R)-2-amino-5-fluoro-4-methyl-5,6-dihydro-4H-[1,3]oxazin-4-yl)-4-fluoro-phenyl]-amide] | 9.00 | 8.15
C[C@]1(c2cc(NC(=O)c3ccc(OCF)cn3)ccc2F)N=C(N)OC[C@@H]1F [Example 5, 5-Fluoromethoxy-pyridine-2-carboxylic acid [3-((4R,5R)-2-amino-5-fluoro-4-methyl-5,6-dihydro-4H-[1,3]oxazin-4-yl)-4-fluoro-phenyl]] | 9.00 | 6.97
C[C@]1(c2cc(NC(=O)c3ccc(OC(F)F)cn3)ccc2F)N=C(N)OC[C@@H]1F [Example 6, 5-Difluoromethoxy-pyridine-2-carboxylic acid [3-((4R,5R)-2-amino-5-fluoro-4-methyl-5,6-dihydro-4H-[1,3]oxazin-4-yl)-4-fluoro-phenyl]-amide] | 8.70 | 
C[C@]1(c2cc(NC(=O)c3ncc(C#N)cc3Cl)ccc2F)N=C(N)OC[C@@H]1F [Example 7, 3-Chloro-5-cyano-pyridine-2-carboxylic acid [3-((4R,5R)-2-amino-5-fluoro-4-methyl-5,6-dihydro-4H-[1,3]oxazin-4-yl)-4-fluoro-phenyl]-amide] | 8.70 | 8.00
C[C@]1(c2cc(NC(=O)c3ncc(Cl)cc3F)ccc2F)N=C(N)OC[C@@H]1F [Example 8, 5-Chloro-3-fluoro-pyridine-2-carboxylic acid [3-((4R,5R)-2-amino-5-fluoro-4-methyl-5,6-dihydro-4H-[1,3]oxazin-4-yl)-4-fluoro-phenyl]-amide] | 8.70 | 8.22
C[C@]1(c2cc(NC(=O)c3cnc(OCF)cn3)ccc2F)N=C(N)OC[C@@H]1F [Example 10, 5-Fluoromethoxy-pyrazine-2-carboxylic acid [3-((4R,5R)-2-amino-5-fluoro-4-methyl-5,6-dihydro-4H-[1,3]oxazin-4-yl)-4-fluoro-phenyl]-amide] | 7.62 | 
C[C@]1(c2cc(NC(=O)c3ncc(C(F)(F)F)cc3F)ccc2F)N=C(N)OC[C@@H]1F [Example 12, 3-Fluoro-5-trifluoromethyl-pyridine-2-carboxylic acid [3-((4R,5R)-2-amino-5-fluoro-4-methyl-5,6-dihydro-4H-[1,3]oxazin-4-yl)-4-fluoro-phenyl]-amide] | 8.40 | 
C[C@]1(c2cc(NC(=O)c3cnc(OCC(F)F)cn3)ccc2F)N=C(N)OC[C@@H]1F [Example 19, 5-(2,2-Difluoro-ethoxy)-pyrazine-2-carboxylic acid [3-((4R,5R)-2-amino-5-fluoro-4-methyl-5,6-dihydro-4H-[1,3]oxazin-4-yl)-4-fluoro-phenyl]-amide] | 8.10 | 
C[C@]1(c2cc(NC(=O)c3ccc(OCC(F)F)cn3)ccc2F)N=C(N)OC[C@@H]1F [Example 21, 5-(2,2-Difluoro-ethoxy)-pyridine-2-carboxylic acid [3-((4R,5R)-2-amino-5-fluoro-4-methyl-5,6-dihydro-4H-[1,3]oxazin-4-yl)-4-fluoro-phenyl]-amide] | 7.89 | 
C[C@]1(c2cc(NC(=O)c3ccc(OCC4CC4)cn3)ccc2F)N=C(N)OC[C@@H]1F [Example 23, 5-Cyclopropylmethoxy-pyridine-2-carboxylic acid [3-((4R,5R)-2-amino-5-fluoro-4-methyl-5,6-dihydro-4H-[1,3]oxazin-4-yl)-4-fluoro-phenyl]-amide] | 7.82 | 
C[C@]1(c2cc(NC(=O)c3ccc(OCC(F)(F)C(F)F)cn3)ccc2F)N=C(N)OC[C@@H]1F [Example 24, 5-(2,2,3,3-Tetrafluoro-propoxy)-pyridine-2-carboxylic acid [3-((4R,5R)-2-amino-5-fluoro-4-methyl-5,6-dihydro-4H-[1,3]oxazin-4-yl)-4-fluoro-phenyl]-amide] | 7.77 | 
C[C@]1(c2cc(NC(=O)c3ccc(OCC(F)(F)C(F)(F)F)cn3)ccc2F)N=C(N)OC[C@@H]1F [Example 25, 5-(2,2,3,3,3-Pentafluoro-propoxy)-pyridine-2-carboxylic acid [3-((4R,5R)-2-amino-5-fluoro-4-methyl-5,6-dihydro-4H-[1,3]oxazin-4-yl)-4-fluoro-phenyl]-amide] | 7.28 | 
C[C@]1(c2cc(NC(=O)c3cncs3)ccc2F)N=C(N)OC[C@@H]1F [Example 29, Thiazole-5-carboxylic acid [3-((4R,5R)-2-amino-5-fluoro-4-methyl-5,6-dihydro-4H-[1,3]oxazin-4-yl)-4-fluoro-phenyl]-amide] | 6.60 | 
Cc1cc(C(=O)Nc2ccc(F)c([C@@]3(C)N=C(N)OC[C@@H]3F)c2)nn1C [Example 30, 1,5-Dimethyl-1H-pyrazole-3-carboxylic acid [3-((4R,5R)-2-amino-5-fluoro-4-methyl-5,6-dihydro-4H-[1,3]oxazin-4-yl)-4-fluoro-phenyl]-amide] | 6.12 | 
C[C@]1(c2cc(NC(=O)C3(C#N)CC3)ccc2F)N=C(N)OC[C@@H]1F [Example 31, 1-Cyano-cyclopropanecarboxylic acid [3-((4R,5R)-2-amino-5-fluoro-4-methyl-5,6-dihydro-4H-[1,3]oxazin-4-yl)-4-fluoro-phenyl]-amide] | 7.12 | 
C[C@]1(c2cc(NC(=O)C3CC3)ccc2F)N=C(N)OC[C@@H]1F [Example 32, Cyclopropanecarboxylic acid [3-((4R,5R)-2-amino-5-fluoro-4-methyl-5,6-dihydro-4H-[1,3]oxazin-4-yl)-4-fluoro-phenyl]-amide] | 6.14 | 
C[C@]1(c2cc(NC(=O)c3ccc(Cl)cn3)ccc2F)N=C(N)OC[C@H]1F [Example 34, 5-Chloro-pyridine-2-carboxylic acid [3-((4R,5S)-2-amino-5-fluoro-4-methyl-5,6-dihydro-4H-[1,3]oxazin-4-yl)-4-fluoro-phenyl]-amide] | 7.38 | 
C[C@]1(c2cc(NC(=O)c3ccc(OCC(F)(F)F)cn3)ccc2F)N=C(N)OC[C@@H]1OCC(F)(F)F [Example 49, 5-(2,2,2-Trifluoro-ethoxy)-pyridine-2-carboxylic acid {3-[(4R,5R)-2-amino-4-methyl-5-(2,2,2-trifluoro-ethoxy)-5,6-dihydro-4H-[1,3]oxazin-4-yl]-4-fluoro-phenyl}-amide] | 7.68 | 
CC#CCOc1cnc(C(=O)Nc2ccc(F)c([C@@]3(C)N=C(N)OC[C@]3(C)F)c2)cn1 [Example 50, 5-But-2-ynyloxy-pyrazine-2-carboxylic acid [3-((4R,5R)-2-amino-5-fluoro-4,5-dimethyl-5,6-dihydro-4H-[1,3]oxazin-4-yl)-4-fluoro-phenyl]-amide] | 10.00 | 
